Experimental findings from patent US20160207904A1, “CRYSTALLINE 2-HYDROXY-6-((2-(1-ISOPROPYL-1H-PYRAZOL-5-YL)PYRIDIN-3-YL)METHOXY)BENZALDEHYDE ANSOLVATE SALTS” (GLOBAL BLOOD THERAPEUTICS, INC., priority 2013, published 2016) are described below.

Molecules are shown by their SMILES. A value given as a limit tells only on which side of the number the result lay.

Common to all, as to assay type: physicochemical
Data set [1] is described as follows: Interconversion study (slurries of mixed forms in ethyl acetate or ethanol, XRPD). The following applies: ambient condition, hydrochloride. Here is the method: (§1) In an interconversion study, a mixture of all identified crystal forms turned into Form I after slurry experiments in ethyl acetate or ethanol. […] The XRPD patterns and microscopy images of the three crystal forms are shown in FIG. 6 and FIG. 7, respectively.
Interconversion Study: Interconversion experiments were carried out by making slurries containing the same amount of different forms solids in ethyl acetate or ethanol. The slurries were kept stirring for days at ambient condition. The insoluble solids were recovered by filtration and examined using XRPD.
Interconversion experiments were performed with the various crystalline forms. Samples of equal amount of Form I mixed with Form II in solvents (ethyl acetate or ethanol) were slurried at ambient condition with covering. The remaining solids were collected by filtration and examined by XRPD. […] Some observed differences in the —OH stretch region at 3500 cm−1 in FTIR were most likely due to the preferred orientation which may be caused by particle size and morphology difference.

The nature of data set [2]: Heating to 80° C. by TGA, then XRPD. Particulars: heated to 80° C. by TGA. Here is the method: Powder X-RayDiffraction (XRPD): The solid samples were examined using X-ray diffractometer (Bruker D8 advance). The system is equipped with LynxEye detector. The samples were scanned from 3 to 40° 2θ, at a step size 0.02° 2θ. The tube voltage and current were 40 KV and 40 mA respectively. The sample was transferred from sample container onto zero background XRD holder and gently ground. TGA Analysis: TGA analysis was carried out on a TA Instruments TGA Q500. Samples was placed in a tarred platinum or aluminum pan, automatically weighed and inserted into the TGA furnace. The samples were heated at a rate of 10° C./min to final temperature of 300° C. The purge gas is nitrogen for balance at 40 ml/min and for the sample at 60 ml/min, respectively. Scale-up of Form II: 60 mg or 40 mg of Compound 1 hydrochloride was dissolved in 3 mL of ethanol or 1-butanol, respectively. Both solutions were filtered, filtrates were collected and then the two filtrates were combined in (1:1) volume ratio. The resulting solution was allowed to evaporate at ambient condition to dryness to yield Form II.

A short description of data set [3]: Physical stability of crystal forms at ambient conditions. The following applies: converted into Form I or a mixture of Form I and its free base.
Description: Methods: Three crystal forms of 2-hydroxy-6-((2-(1-isopropyl-1H-pyrazol-5-yl)pyridin-3-yl)methoxy)benzaldehyde hydrochloride with different XRPD patterns were identified in this study based on a matrix of crystallizations in various solvents, screened in 96-wells as described below. An initial drug substance was assigned as Form I. Form I was also obtained in numerous conditions during solvent crystallization in the 96-well screen and in slurry studies. Form II and Form III were also generated. Solids obtained were characterized by X-ray powder diffraction (XRPD), differential scanning calorimetry (DSC), thermogravimetry (TGA), polarizing microscope (PLM) and Fourier transform infrared spectrometer (FTIR).
as §1

A short description of data set [4]: Dynamic vapor sorption (DVS). The following applies: at 80% RH, 25.0±1.0° C. As to the method:
Dynamic Vapor Sorption (DVS): Dynamic moisture adsorption and desorption was studied using IGA Sorp (Hidden Isochema Ltd.Warrington, UK). About 5 mg (3˜5 mg) of a prepared sample was placed in a sample basket and hung in the measuring chamber of an IGA Sorp. For an isotherm test, the chamber temperature is maintained by a water bath at constant 25.0±1.0° C. The sample was tested at a targeted RH range from 0% to 90% full cycle in step mode. The analysis is performed in 10% increment. Time duration at each RH was set as […] Solid State Characterizaton: Form I of Compound 1 hydrochloride was characterized by XRPD (FIG. 1), TGA (FIG. 2), DSC (FIG. 3), DVS (FIG. 4). […] The crystal form of the initial drug substance is assigned as Form I.

Regarding `CC(C)n1nccc1-c1ncccc1COc1cccc(O)c1C=O.Cl` [Form II, 2-hydroxy-6-((2-(1-isopropyl-1H-pyrazol-5-yl)pyridin-3-yl)methoxy)benzaldehyde hydrochloride], the “outcome of interconversion (slurry) experiments / relative thermodynamic stability” value in data set [1] is reported as “transforms almost entirely to Form I crystals”. Also, the XRPD after heating entry in data set [2] is “remained unchanged”. For the same compound, the “stability of crystal form at ambient conditions” value in data set [3] is listed as “unstable at ambient conditions”.

For the compound `CC(C)n1nccc1-c1ncccc1COc1cccc(O)c1C=O.Cl` [Form I, 2-hydroxy-6-((2-(1-isopropyl-1H-pyrazol-5-yl)pyridin-3-yl)methoxy)benzaldehyde hydrochloride], in data set [1], the “outcome of interconversion (slurry) experiments / relative thermodynamic stability” value is listed as “the most thermodynamically stable form”. The “water picked up (DVS profile)” value in data set [4] is given as under 1%.

As for `CC(C)n1nccc1-c1ncccc1COc1cccc(O)c1C=O.Cl` [Form III, 2-hydroxy-6-((2-(1-isopropyl-1H-pyrazol-5-yl)pyridin-3-yl)methoxy)benzaldehyde hydrochloride], the “stability of crystal form at ambient conditions” value in data set [3] is recorded as “unstable at ambient conditions”.
